Experiment: Beef bouillon taste evaluation by a panel of experienced tasters
Conditions: 40 ppb dosed to beef bouillon made from bouillon cubes; versus reference bouillon
Experimental: A beef bouillon was prepared using bouillon cubes obtained from a local supermarket.

| Structure (SMILES) | taste of the bouillon compared with the reference (panel agreement) |
| --- | --- |
| O=C(O)CCCCCCCC(=O)NC(Cc1c[nH]c2ccccc12)C(=O)O (stereo not drawn) [Example 1, 9-((1-Carboxy-2-(1H-indol-3-yl)ethyl)amino)-9-oxononanoic acid] | more umami, more salty and more full than the reference |
| O=C(O)CCCCCCCC(=O)N1CCCC1C(=O)O (stereo not drawn) [Example 2, 1-(8-Carboxyoctanoyl)pyrrolidine-2-carboxylic acid] | more salt impact, and more umami taste than the reference |
| O=C(O)CCCCCCCC(=O)NCCCC(=O)O [Example 3, 9-((3-Carboxypropyl)amino)-9-oxononanoic acid] | more salty and had more “bite” than the reference |

— patent US10537127B2, “Organic compounds” (GIVAUDAN SA, priority 2013, dated 2020)
